“And” between values parts separate entries of the source, which are not always exact repeats. Equal entries are not always repeated. Numbers after ± are expanded uncertainties.
Assays:
[1] = refractive index (Na D-line) (dimensionless); settings: 293.15 K; 101.33 kPa; Liquid; Standard Abbe refractometry
[2] = Liquid, Ebulliometric method (Recirculating still)

| SMILES | refractive index [1] | vapor or sublimation pressure ([2]; 303.15 K) | vapor or sublimation pressure ([2]; 323.15 K) | vapor or sublimation pressure ([2]; 343.15 K) | vapor or sublimation pressure ([2]; 329.15 K) | vapor or sublimation pressure ([2]; 313.15 K) |
| --- | --- | --- | --- | --- | --- | --- |
| CC(C)CO [2-methyl-1-propanol] | 1.3958 ± 0.002 | 2.01 ± 0.22 kPa | 7.11 ± 0.23 kPa | 20.47 ± 0.24 kPa |  |  |
| CCC(C)O (stereo unspecified) [butan-2-ol] | 1.3976 ± 0.002 | 3.27 ± 0.23 kPa |  | 29.58 ± 0.26 kPa | 14.83 ± 0.23 kPa and 14.37 ± 0.23 kPa |  |
| CCCCCC [hexane] | 1.3725 ± 0.002 | 25.09 ± 0.28 kPa | 54.3 ± 0.29 kPa | 105.38 ± 0.71 kPa | 66.87 ± 0.39 kPa and 67.73 ± 0.39 kPa |  |
| CCCO [propan-1-ol] | 1.3853 ± 0.002 | 3.9 ± 0.22 kPa | 12.19 ± 0.23 kPa |  |  | 7.02 ± 0.23 kPa and 6.93 ± 0.23 kPa |
| O [water] | 1.3333 ± 0.002 | 4.27 ± 0.22 kPa | 12.38 ± 0.23 kPa |  |  | 7.44 ± 0.23 kPa and 7.34 ± 0.23 kPa |

Source: the NIST ThermoML archive (doi:10.1021/acs.jced.9b00102)
